From patent US20060142391A1, “PPARGAMMA-ACTIVATING PHARMACEUTICAL COMPOSITION” (priority 2001, published 2006)

Columns and labels:
[1] = test system: GAL4 (yeast transcription activator)—PPARγ fusion protein; experiment: PPARγ agonist activity assay (GAL4-PPARγ / CAT reporter in COS-1 cells); assay type: cell-based; conditions: for PPARγ agonist activity compared with 15-deoxy-PG J2 positive control: 1 μM; for PPARγ agonist activity relative to the negative control group with no drug added: concentration of 1 μM
Protocol: COS-1 cells were cotransfected with a plasmid for expressing a GAL4 (yeast transcription activator)—PPARγ fusion protein (effector plasmid) and a reporter plasmid 17 M2 CAT (GAL4 responsive sequence+TK promoter+chloramphenicol acetyltransferase cDNA), and then test compounds were added to the culture medium and CAT activity was assayed after 24 hours and compared with a negative control (with no drug added) to calculate a relative CAT activity, whereby PPARγ agonist activity was evaluated ('90 Proc. Natl. Acad. Sci. USA 87, p. 9995; '94 J. B. C. 269, p. 32700; '95 ibid. p. 5858; '00 J.B.C. 275, p. 33201). […] Then, 4(S)-OH-DHA, 8(S)-OH-DHA, 10(S)-OH-DHA, 11(S)-OH-DHA, 14(S)-OH-DHA and 17(S)-OH-DHA prepared in Example 1 were used as test compounds to assay PPARγ agonist activity as compared with 15-deoxy-PG J2 (from Bio Mol) known as a ligand for PPARγ as a positive control.

platelets = experiment: Ex vivo collagen-induced platelet aggregation assay; assay type: in vivo, rats; conditions: 3-6 μg/ml collagen
Protocol: An evaluation was made to determine whether or not collagen-induced platelet aggregation is inhibited by 4(S)-OH-DHA.
Male SD rats (SPF, 9 weeks of age) were anesthetized and then blood was collected from the abdominal aorta into a tube containing 3.8% sodium citrate (Chitoral from Yamanouchi Pharmaceutical Co., Ltd.). The tube was centrifuged at 900 rpm at room temperature for 10 minutes to collect the supernatant (PRP, platelet-rich fraction), and the residue was further centrifuged at 2500 rpm for 15 minutes to collect the supernatant (PPP, platelet-poor fraction).
A cuvette containing PPP (platelet-poor fraction) was placed in an incubator for PPP at 37° C. in an aggregometer (Hematracer 240 12 ch, from MCM). Then, a cuvette containing 200 μl of PRP (platelet-rich fraction) was placed in a reactor for PRP. The cuvettes were stirred with a magnetic stirrer for 30 seconds to automatically correct the permeability of PPP to T650 nm=100% and the permeability of PRP to T650 nm=0%.
After 1 minute, 20 μl of collagen (from MCM) was added and subsequent changes in permeability were recorded for 5 minutes. The permeability increases with platelet aggregation. The permeability T at maximum aggregation, i.e. at the peak of aggregation was compared with the permeability T0 of a negative control to determine the degree of aggregation inhibition expressed in percentage using the following equation. Aggregation inhibition=(1−T/T0)×100
The aggregation induced by 3-6 μg/ml of collagen was evaluated in platelets prepared from blood collected at 2 instants, i.e. 10 minutes and 60 minutes after administration of 10 mg/kg of 4(S)-OH-DHA to the tail vain of male SD rats (SPF, 9 weeks of age). The aggregation was determined in animals treated with vehicle (physiological saline) as a control group.
As a control, a solvent (physiological saline) was used. Aggregation was induced by 3-6 μg/ml of collagen in platelets prepared from blood collected 10 minutes after administration of 10, 1 or 0.1 mg/kg of the test compound to the tail vain of rats.

[2] = test system: neutrophils and vascular endothelial cells; experiment: In vitro model simulating vascular inflammation induced by TNFα (transwell); assay type: cell-based, bovine; conditions: 30, 3 or 0.3 μM together with TNFα
Protocol: An in vitro model simulating vascular inflammation was prepared according to the method described in “Textbook on Biopharmaceutical Experiments, 12 Inflammation and Allergy II”, pp. 327-341 (edited by Kazuo Ouchi, published by Hirokawa Publishing Co., May 15, 1993).
Transwells (from Kurabo Industries, Ltd.) divided into upper and lower chambers by a porous polycarbonate membrane having a pore size of 3 μm were used and a layer of bovine endothelial cells were coated on the bottom of the membrane and incubated at 37° C. under 5% CO2 for 80 minutes. […]
To the upper chamber of the transwells was added a suspension of neutrophils containing 4(S)-OH-DHA at a final concentration of 30, 3 or 0.3 μM together with TNFα to count the number of neutrophils permeating the vascular endothelial cell layer from the upper chamber into the lower chamber and the number of neutrophils adhering to the endothelial cell layer in the same manner as described above, and thereafter the migration and adhesion (%) of neutrophils were calculated.
The migration and adhesion percentages of neutrophils were expressed as relative values of the numbers of neutrophils that migrated or adhered in the group treated with the drug as compared with neutrophils in a negative control group.

[3] = test system: hereditary diabetes db/db mice; experiment: Evaluation on hereditary diabetes mice (blood sugar); assay type: in vivo; conditions: oral 100 mg/kg for a week, n=6
Protocol: As a result of oral administration of 100 mg/kg of 8(S)-OH-DHA and 14(S)-OH-DHA to hereditary diabetes db/db mice (average body weight: 42 g, n=6, available from Sankyo Co., Ltd.) for a week, a significant decrease in blood sugar levels could be observed as compared with a negative control group (treated with 5% gum acacia as a vehicle) (Table 1).

rat aortic smooth muscle = conditions: contraction induced by thromboxane A2 analog U 46619 (2.5 μM); cited from earlier work

## CC/C=C\C/C=C\C/C=C\C/C=C\C/C=C\C=C\[C@@H](O)CCC(=O)O [4(S)-OH-DHA]
[1]
  PPARγ agonist activity compared with 15-deoxy-PG J2 positive control: comparable to or higher than that of 15-deoxy-PG J2
[1]; CAT activity after 24 hours
  PPARγ agonist activity relative to the negative control group with no drug added: about 3 times
platelets; 1 mg/kg to tail vein, blood collected 10 minutes after administration
  Platelet aggregation vs vehicle group: platelet aggregation was inhibited
platelets; 10 mg/kg to tail vein, blood collected 10 minutes after administration
  Platelet aggregation vs vehicle group: platelet aggregation was inhibited
platelets; 10 mg/kg to tail vein, blood collected 60 minutes after administration
  Platelet aggregation vs vehicle group: platelet aggregation was inhibited
[2]
  Adhesion of neutrophils to the endothelial cell layer: inhibited
  Permeation (migration) of neutrophils through the endothelial cell layer: inhibited

## CC/C=C\C/C=C\C/C=C\C/C=C\C[C@H](O)/C=C/C=C\CCC(=O)O [8(S)-OH-DHA]
[1]
  PPARγ agonist activity compared with 15-deoxy-PG J2 positive control: comparable to or higher than that of 15-deoxy-PG J2
[1]; CAT activity after 24 hours
  PPARγ agonist activity relative to the negative control group with no drug added: about 7 times
[3]
  Blood sugar level: 190 ± 20 mg/dL

## CC/C=C\C/C=C\C/C=C\C=C\[C@@H](O)C/C=C\C/C=C\CCC(=O)O [10(S)-OH-DHA]
[1]
  PPARγ agonist activity compared with 15-deoxy-PG J2 positive control: comparable to or higher than that of 15-deoxy-PG J2
[1]; CAT activity after 24 hours
  PPARγ agonist activity relative to the negative control group with no drug added: about 3 times

## CC/C=C\C/C=C\C/C=C\C[C@H](O)/C=C/C=C\C/C=C\CCC(=O)O [11(S)-OH-DHA]
[1]
  PPARγ agonist activity compared with 15-deoxy-PG J2 positive control: comparable to or higher than that of 15-deoxy-PG J2
[1]; CAT activity after 24 hours
  PPARγ agonist activity relative to the negative control group with no drug added: about 3 times

## CC/C=C\C/C=C\C[C@H](O)/C=C/C=C\C/C=C\C/C=C\CCC(=O)O [14(S)-OH-DHA]
[1]
  PPARγ agonist activity compared with 15-deoxy-PG J2 positive control: comparable to or higher than that of 15-deoxy-PG J2
[1]; CAT activity after 24 hours
  PPARγ agonist activity relative to the negative control group with no drug added: about 7 times
[3]
  Blood sugar level: 220 ± 13 mg/dL

## CC/C=C\C/C=C\CC(O)/C=C/C=C\C/C=C\C/C=C\CCC(=O)O (stereo not drawn) [14OH-DHA]
Rat aortic smooth muscle
  25% inhibition concentration IC25: 1.07 ± 0.34 µM

## CC/C=C\C[C@H](O)/C=C/C=C\C/C=C\C/C=C\C/C=C\CCC(=O)O [17(S)-OH-DHA]
[1]
  PPARγ agonist activity compared with 15-deoxy-PG J2 positive control: comparable to or higher than that of 15-deoxy-PG J2
[1]; CAT activity after 24 hours
  PPARγ agonist activity relative to the negative control group with no drug added: about 3 times

## CC/C=C\C/C=C\C/C=C\C/C=C\C/C=C\C/C=C\CCC(=O)O [DHA, docosahexaenoic acid, reference compound]
[1]; test compound at 3 μM, CAT activity after 24 hours
  PPARγ transcription activity, ratio as compared with the negative control: 205±79%
